Where two headings read alike, the source gives them in different places.
Tested on: pulmonary artery of the guinea pig
Assay: relaxing effect on spiral strips of the pulmonary artery of the guinea pig (modified method of Godfraind and Kaba and of Schuman et al.)
Settings: strips depolarised with 40 mmol/l potassium in calcium-free Tyrode solution, contraction by 0.5 mmol/l CaCl2, cumulative addition, mean value of 4 to 6 vessel strips, read-out: IC50 (concentration of the test substance which inhibits the contraction by 50%) (converted)
Protocol: The pharmacological effect of the compounds of the formula I was determined according to a modified method of Godfraind and Kaba (Arch. Int. Phamacodyn. Ther. 196, (Suppl) 35 to 49, 1972) and of Schuman et al. (Naunyn-Schmiedeberg's Arch. Phamacol. 289, 409 to 418, 1975). Spiral strips of the pulmonary artery of the guinea pig are depolarised with 40 mmol/1 of potassium after equilibration in calcium-free Tyrode solution. An addition of 0.5 mmol/1 of CaCl2 then induces a contraction. The relaxing effect of the test substance is determined by cumulative addition in 1/2 log 10 stepped concentrations. The concentration of the test substance which inhibits the contraction by 50% (=IC50, mol/1) is determined from the concentration-effect curve (abscissa: -log mol/1 of test substance, ordinate: percentage inhibition of the maximum contraction, mean value of 4 to 6 vessel strips).

CCOC(=O)[N-]c1cn(N2CCOCC2)n[o+]1 [Molsidomine, N-ethoxycarbonyl-3-morpholinosydnoneimine, reference compound]
IC50: > 100000 nM

CCCC(C)(C)[n+]1noc([O-])n1 [Example 5, 3-(2-Methylpent-2-yl)-1,2,3,4-oxatriazolium-5-olate]
IC50 (Cavia porcellus): 600 nM

CC(C)(C)NC(=O)C(C)(C)[n+]1noc([O-])n1 [Example 4, 3-(1-tert-Butylaminocarbonyl-1-methylethyl)-1,2,3,4-oxatriazolium-5-olate]
IC50 (Cavia porcellus): 60000 nM

CCC(C)(C)[n+]1noc([O-])n1 [Example 1, 3-tert-Pentyl-1,2,3,4-oxatriazolium-5-olate]
IC50 (Cavia porcellus): 3000 nM
